Test system: MDA-MB-435 xenograft
Assay: MDA-MB-435 breast tumor xenograft
Type: in vivo, mouse
Settings: MDA-MB-435 model, differences did not reach statistical significance
Description: Athymic nude mice (Charles River Laboratories, Wilmington, Mass.) were injected subcutaneously in the left flank area with 2×10^6 of DU4475 cells or 5×10^6 of MDA-MB-231 and MDA-MB-435 cells mixed in Matrigel (Collaborative Research Biochemicals. Bedford, Mass.). In the DU4475 and MDA-MB-231 models, tumors were allowed to reach approximately 200 mm^3 in size and then mice were randomized into groups of 12-16 animals per group. Animals received i.p. administration of the anti-VEGFR-I antibody clones 6F9, 15F11, or 18F1 at a dose of 0.5 mg (MDA-MB-231) or 1 mg (DU4475) three times each week. In the MDA-MB-435 model, the tumor cells were implanted subcutaneously into mammary fat pad area in the mouse. After tumors grew to reach approximately 200 mm^3 in size, mice were randomized into groups of 15 animals per group and intraperitoneally administered with 0.5 mg per dose of 18F1 antibody three times each week. Mice in control groups received an equal volume of saline solution. Treatment of animals was continued for the duration of the experiment. Tumors were measured twice each week with calipers. Tumor volumes were calculated using the formula [π/6 (w1×w2×w2)], where “w1” represents the largest tumor diameter and “w2” represents the smallest tumor diameter. […] Tumor growth was evaluated approximately twice weekly, with tumor volume calculated as π/6* (Length*Width^2), where Length=longest diameter and Width=diameter perpendicular to Length. Tumor dimensions were measured with calipers. T/C % was calculated as 100*(Final Treatment Tumor Volume/Initial Treatment Tumor Volume)/(Final Control Tumor Volume/Initial Control Tumor Volume). […] The effect of treatment on tumor growth was analyzed using repeated measures analysis of variance (RM ANOVA), p<0.05 was considered significant. […] AU treatments were administered i.p. The effect of treatments on tumor growth were analyzed using repeated measures analysis of variance (RM ANOVA), p<0.05 was considered significant.

O=P1(N(CCCl)CCCl)NCCCO1 (stereo not shown) [cyclophosphamide, reference compound]
T/C %: 65%

Source: US8143025B2, “Antibodies against vascular endothelial growth factor receptor-1” (ImClone LLC, priority 2004, dated 2012)
